Reference: patent publication US9181577B2, “Treatment of chronic pelvic pain syndrome” (Northwestern University, priority 2010, dated 2015)

The molecules below were run on pelvic pain behavior in EAP NOD mice (assay: Mast cell function inhibitors on established pelvic pain behavior in EAP model (von Frey tactile allodynia)). Settings: 10 mg/kg each drug, intraperitoneal, at day 10 after PAg injection; tested one hour after drug administration.
Format: in vivo
Procedure: Mice injected with rat prostate antigen (PAg) were tested at baseline and 10 days after injection for the development of pain behavior. Mice were treated at day 10 by intraperitoneal injection with saline (Control, A), 10 mg/kg each of cetrizine (H1, B), ranitidine (H2, C), Cromolyn sodium (MC stabilizer, D) or all three drugs (Combination, E) in a 200 μl volume. Following blinding of treatment and control groups, pelvic pain behavior was tested one hour after drug administration.
The experimental autoimmune prostatitis (EAP) model was selected for experiments conducted during development of embodiments of the present invention. Autoimmunity is one of the etiologies for patients with CPPS. Rat prostate antigen instillation in NOD mice provokes a chronic inflammation that is multifocal and evenly distributed in all the prostatic lobes. Pelvic pain was examined in NOD and C57BL/6 (B6) mice using quantitative behavior testing methods to assess tactile sensitivity of the suprapubic region. […] When expressed as increase in pain from baseline there was an approximately 350% increase in pain behavior compared to sham controls (SEE FIG. 1). This indicates the development of chronic pelvic pain in EAP mice and is the first report of chronic pain symptoms in an animal model of prostatitis.
Pelvic pain behavior in the EAP model was inhibited following the establishment of pain. EAP was induced in NOD mice and pelvic pain behavior at baseline and 10 days after disease onset was measured. Mice were administered a mast cell stabilizer, cromolyn sodium; a histamine receptor 1 antagonist, cetirizine; a histamine receptor 2 antagonist, ranitidine; and a combination of all three pharmacological agents or saline as control. Pelvic pain behavior was tested one hour after drug administration.
For `O=C(O)COCCN1CCN(C(c2ccccc2)c2ccc(Cl)cc2)CC1` (stereo not drawn) [cetirizine], the “reduction of pain behavior” value was 13.6%.
In the case of `O=C(O)c1cc(=O)c2c(OCC(O)COc3cccc4oc(C(=O)O)cc(=O)c34)cccc2o1` [cromolyn sodium], the “reduction of pain behavior” value is reported as 39.6%.
In the case of `CNC(=C[N+](=O)[O-])NCCSCc1ccc(CN(C)C)o1` [ranitidine], the “reduction of pain behavior” value is reported as 15.9%.
